This note sets out measurements from PubChem BioAssay AID1259407 (Chemical Carcinogenesis Research Information System (CCRIS), 2018).

The subject of this series is CCRIS mutagenicity, Ames/micronucleus/aberration tests. The series is described as follows: CCRIS mutagenicity studies.

The source made the active and inactive calls. How the calls were made is not given here.

`Cc1cc(S(=O)(=O)O)c(N)cc1Cl`: the mutagenic call reads like this: (Test System: AMES SALMONELLA TYPHIMURIUM, Strain/Indicator: TA98, Metabolic Activation: HAMSTER, LIVER, S-9, AROCLOR 1254, Method: STANDARD PLATE) “active; positive”; (Test System: AMES SALMONELLA TYPHIMURIUM, Strain/Indicator: TA98, Metabolic Activation: NONE, Method: STANDARD PLATE) “inactive; negative”; (Test System: AMES SALMONELLA TYPHIMURIUM, Strain/Indicator: TA98, Metabolic Activation: RAT, LIVER, S-9, AROCLOR 1254, Method: STANDARD PLATE) “active; positive”; (Test System: AMES SALMONELLA TYPHIMURIUM, Strain/Indicator: TA100, Metabolic Activation: HAMSTER, LIVER, S-9, AROCLOR 1254, Method: STANDARD PLATE) “inactive; negative”; (Test System: AMES SALMONELLA TYPHIMURIUM, Strain/Indicator: TA100, Metabolic Activation: NONE, Method: STANDARD PLATE) “inactive; negative”; (Test System: AMES SALMONELLA TYPHIMURIUM, Strain/Indicator: TA100, Metabolic Activation: RAT, LIVER, S-9, AROCLOR 1254, Method: STANDARD PLATE) “inactive; negative”. Besides, the mutagenic call was “inactive; negative” (Test System: Ames Salmonella typhimurium, Strain/Indicator: TA98, Metabolic Activation: None, Method: Preincubation); “inactive; negative” (Test System: Ames Salmonella typhimurium, Strain/Indicator: TA98, Metabolic Activation: Rat, Liver, S9, Sodium phenobarbital and 5,6-benzoflavone (10%), Method: Preincubation); “inactive; negative” (Test System: Ames Salmonella typhimurium, Strain/Indicator: TA100, Metabolic Activation: None, Method: Preincubation); “inactive; negative” (Test System: Ames Salmonella typhimurium, Strain/Indicator: TA100, Metabolic Activation: Rat, Liver, S9, Sodium phenobarbital and 5,6-benzoflavone (10%), Method: Preincubation); “inactive; negative” (Test System: Ames Salmonella typhimurium, Strain/Indicator: TA1535, Metabolic Activation: None, Method: Preincubation); “inactive; negative” (Test System: Ames Salmonella typhimurium, Strain/Indicator: TA1535, Metabolic Activation: Rat, Liver, S9, Sodium phenobarbital and 5,6-benzoflavone (10%), Method: Preincubation). Moreover, the mutagenic call (Test System: Ames Salmonella typhimurium, Strain/Indicator: TA1537, Metabolic Activation: None, Method: Preincubation) is “inactive; negative”; the mutagenic call (Test System: Ames Salmonella typhimurium, Strain/Indicator: TA1537, Metabolic Activation: Rat, Liver, S9, Sodium phenobarbital and 5,6-benzoflavone (10%), Method: Preincubation) is “inactive; negative”; the mutagenic call (Test System: E. coli, Strain/Indicator: WP2uvrA/pKM101, Metabolic Activation: None, Method: Preincubation) was “inactive; negative”; the mutagenic call (Test System: E. coli, Strain/Indicator: WP2uvrA/pKM101, Metabolic Activation: Rat, Liver, S9, Sodium phenobarbital and 5,6-benzoflavone (10%), Method: Preincubation) was “inactive; negative”; the mutagenic call (Test System: MOUSE LYMPHOMA, Strain/Indicator: L5178Y (TK+/TK-), Metabolic Activation: NONE, Method: SUSPENSION/PLATE) is “inactive; negative. reevaluation of results: negative”; the mutagenic call (Test System: MOUSE LYMPHOMA, Strain/Indicator: L5178Y (TK+/TK-), Metabolic Activation: RAT, LIVER, S-9, AROCLOR 1254, Method: SUSPENSION/PLATE) is “inactive; negative. reevaluation of results: equivocal”. For the same molecule, the mutagenic call (Test System: UDS RODENT HEPATOCYTES, Strain/Indicator: THY INCORP (NON-S-PHASE), Metabolic Activation: NONE, Method: AUTORADIOGRAPHY) was “inactive; negative”.
